Data: patent US10086085B2, “Bifunctional cytotoxic agents” (priority 2014, dated 2018)

Experiments:
[1] = system: N87 (human gastric carcinoma derived from metastatic liver site); test: Cytotoxicity assay for payloads (MTS), N87 cells; type: cell-based; settings: Homo sapiens, 96 h; N87 cells, incubated with compounds for four days, MTS absorbance 490 nm; read-out: N87 IC50
Summary of the method: (§1)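 Cells in RPMI 1640 with 10% FBS exposed to compounds for four days at 10 concentrations in duplicate. Viability read by MTS absorbance at 490 nm after 1.5 h, as % of untreated controls; IC50 from four-parameter logistic fit.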

HL60 (leukemia) = test: Cytotoxicity assay for payloads (MTS), HL-60 cells; type: cell-based; settings: Homo sapiens, 96 h, incubated with compounds for four days, MTS absorbance 490 nm
Summary of the method: as §1

Compound | IC50 [1] [nM] | IC50 (HL60 (leukemia)) [nM]
CC(=O)Oc1cc2c(c3ccccc13)[C@H](CCl)CN2C(=O)C12CC(CC(=O)N3C[C@@H](CCl)c4c3cc(O)c3ccccc43)(C1)C2 [Compound 162, (1S)-1-(chloromethyl)-3-[(3-{2-[(1S)-1-(chloromethyl)-5-hydroxy-1,2-dihydro-3H-benzo[e]indol-3-yl]-2-oxoethyl}bicyclo[1.1.1]pent-1-yl)carbonyl]-2,3-dihydro-1H-benzo[e]indol-5-yl acetate] | 0.749 | 0.02
O=C(N1C[C@@H](CCl)c2c1cc(O)c1ccccc21)C12CC(C(=O)N3C[C@@H](CCl)c4c3cc(OP(=O)(O)O)c3ccccc43)(C1)C2 [Compound 163, (1S)-1-(chloromethyl)-3-[(3-{[(1S)-1-(chloromethyl)-5-hydroxy-1,2-dihydro-3H-benzo[e]indol-3-yl]carbonyl}bicyclo[1.1.1]pent-1-yl)carbonyl]-2,3-dihydro-1H-benzo[e]indol-5-yl dihydrogen phosphate] | 6.89 | 0.179
Cc1c[nH]c2c(O)cc3c(c12)[C@H](CCl)CN3C(=O)CNCC(=O)N1C[C@@H](CCl)c2c1cc(O)c1[nH]cc(C)c21 [Compound 165, 2,2′-iminobis{1-[(1S)-1-(chloromethyl)-5-hydroxy-8-methyl-1,6-dihydropyrrolo[3,2-e]indol-3(2H)-yl]ethanone}] | 8.26 | 0.107
NC(CC(=O)N1C[C@H]2C[C@@]23C1=CC(=O)c1ccccc13)CC(=O)N1C[C@H]2C[C@@]23C1=CC(=O)c1ccccc13 [Compound 166, 3-amino-1,5-bis[(1aS,9bR)-5-oxo-1a,2-dihydro-1H-benzo[e]cyclopropa[c]indol-3(5H)-yl]pentane-1,5-dione] | 5.69 | 0.659
N[C@@H](CCC(=O)N1C[C@H]2C[C@@]23C1=CC(=O)c1ccccc13)C(=O)N1C[C@H]2C[C@@]23C1=CC(=O)c1ccccc13 [Compound 167, (2S)-2-amino-1,5-bis[(1aS,9bR)-5-oxo-1a,2-dihydro-1H-benzo[e]cyclopropa[c]indol-3(5H)-yl]pentane-1,5-dione] | ≥ 10 | 1.45
Cc1c[nH]c2c(O)cc3c(c12)[C@H](CCl)CN3C(=O)CN(CC(=O)N1C[C@@H](CCl)c2c1cc(O)c1[nH]cc(C)c21)C(=O)OCC1c2ccccc2-c2ccccc21 [Compound 169, 9H-fluoren-9-ylmethyl bis{2-[(1S)-1-(chloromethyl)-5-hydroxy-8-methyl-1,6-dihydropyrrolo[3,2-e]indol-3(2H)-yl]-2-oxoethyl}carbamate] | 9.82 | 0.388
O=C(c1ccc(C(=O)N2C[C@@H](CCl)c3c2cc(OP(=O)(O)O)c2ccccc32)s1)N1C[C@@H](CCl)c2c1cc(O)c1ccccc21 [Compound 171, (1S)-1-(chloromethyl)-3-[(5-{[(1S)-1-(chloromethyl)-5-hydroxy-1,2-dihydro-3H-benzo[e]indol-3-yl]carbonyl}thiophen-2-yl)carbonyl]-2,3-dihydro-1H-benzo[e]indol-5-yl dihydrogen phosphate] | 1.55 | 0.131
O=C(OCC1c2ccccc2-c2ccccc21)N(CC(=O)N1C[C@@H](CCl)c2c1cc(O)c1ccccc21)CC(=O)N1C[C@@H](CCl)c2c1cc(O)c1ccccc21 [Compound 172, 9H-fluoren-9-ylmethyl bis{2-[(1S)-1-(chloromethyl)-5-hydroxy-1,2-dihydro-3H-benzo[e]indol-3-yl]-2-oxoethyl}carbamate] | 13.8 | 0.474
O=C(CNCC(=O)N1C[C@@H](CCl)c2c1cc(OP(=O)(O)O)c1ccccc21)N1C[C@@H](CCl)c2c1cc(OP(=O)(O)O)c1ccccc21 [Compound 173, iminobis[(1-oxoethane-2,1-diyl)(1S)-1-(chloromethyl)-1,2-dihydro-3H-benzo[e]indole-3,5-diyl] bis[dihydrogen (phosphate)]] | 13.1 | 0.169
O=C([C@@H]1CNC[C@H](C(=O)N2C[C@@H](CCl)c3c2cc(O)c2ccccc32)C1)N1C[C@@H](CCl)c2c1cc(O)c1ccccc21 [Compound 174, (3R,5S)-piperidine-3,5-diylbis{[(1S)-1-(chloromethyl)-5-hydroxy-1,2-dihydro-3H-benzo[e]indol-3-yl]methanone}] | 87.9 | 1.97
CC(=O)Oc1cc2c(c3ccccc13)[C@H](CCl)CN2C(=O)c1ccc(C(=O)N2C[C@@H](CCl)c3c2cc(OC(C)=O)c2ccccc32)cc1 [Compound 176, benzene-1,4-diylbis[carbonyl(1S)-1-(chloromethyl)-1,2-dihydro-3H-benzo[e]indole-3,5-diyl] diacetate] | 26.4 | 0.199
CC(=O)Oc1cc2c(c3ccccc13)[C@H](CCl)CN2C(=O)Cc1cccc(CC(=O)N2C[C@@H](CCl)c3c2cc(OC(C)=O)c2ccccc32)c1 [Compound 177, benzene-1,3-diylbis[(1-oxoethane-2,1-diyl)(1S)-1-(chloromethyl)-1,2-dihydro-3H-benzo[e]indole-3,5-diyl] diacetate] | 2.12 | 0.196
CC(=O)Oc1cc2c(c3ccccc13)[C@H](CCl)CN2C(=O)Cc1cc(CC(=O)N2C[C@@H](CCl)c3c2cc(OC(C)=O)c2ccccc32)cc([N+](=O)[O-])c1 [Compound 178, (5-nitrobenzene-1,3-diyl)bis[(1-oxoethane-2,1-diyl)(1S)-1-(chloromethyl)-1,2-dihydro-3H-benzo[e]indole-3,5-diyl] diacetate] | 0.484 | 0.036
O=C(O)[C@H]1O[C@@H](Oc2cc3c(c4ccccc24)[C@H](CCl)CN3C(=O)CC23CC(C(=O)N4C[C@@H](CCl)c5c4cc(O)c4ccccc54)(C2)C3)[C@H](O)[C@@H](O)[C@@H]1O [Compound 179, (1S)-1-(chloromethyl)-3-[(3-{[(1S)-1-(chloromethyl)-5-hydroxy-1,2-dihydro-3H-benzo[e]indol-3-yl]carbonyl}bicyclo[1.1.1]pent-1-yl)acetyl]-2,3-dihydro-1H-benzo[e]indol-5-yl beta-D-glucopyranosiduronic acid] | 173 | 14.3
Cc1c[nH]c2c(O)cc3c(c12)[C@H](CCl)CN3C(=O)C12CC(C(=O)N3C[C@@H](CCl)c4c3cc(N)c3ccccc43)(C1)C2 [Compound 180, [(1S)-5-amino-1-(chloromethyl)-1,2-dihydro-3H-benzo[e]indol-3-yl](3-{[(1S)-1-(chloromethyl)-5-hydroxy-8-methyl-1,6-dihydropyrrolo[3,2-e]indol-3(2H)-yl]carbonyl}bicyclo[1.1.1]pent-1-yl)methanone] | 0.425 | 0.048
